Experimental data published in paper PMC5428333, “Novel protein acetyltransferase, Rv2170, modulates carbon and energy metabolism in Mycobacterium tuberculosis” (Scientific Reports, 2017).

Key:
Rv2170 [1] = target: T1, Rv2170 (Mycobacterium tuberculosis, UniProt O53504)
Rv2170 [2] = target: T1, Rv2170; remark: listed apart in the source

T1 sequence (O53504 whole entry): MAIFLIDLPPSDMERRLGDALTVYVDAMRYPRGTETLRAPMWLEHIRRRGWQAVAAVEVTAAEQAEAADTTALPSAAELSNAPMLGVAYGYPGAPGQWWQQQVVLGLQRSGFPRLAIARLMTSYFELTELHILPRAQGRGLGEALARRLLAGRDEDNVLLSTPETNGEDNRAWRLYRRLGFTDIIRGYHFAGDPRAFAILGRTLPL

SMILES	14C transfer to ICDH1, SDS-PAGE and phosphorimaging (Rv2170 [1])	DTNB assay of free CoA at 412 nm; also 14C transfer to ICDH1 by SDS-PAGE and pho (Rv2170 [2])
CCC(=O)SCCNC(=O)CCNC(=O)[C@H](O)C(C)(C)COP(=O)(O)OP(=O)(O)OC[C@H]1O[C@@H](n2cnc3c(N)ncnc32)[C@H](O)[C@@H]1OP(=O)(O)O [propionyl-CoA]	Rv2170 is also capable of modifying ICDH1 with the succinyl-CoA and propionyl-CoA donors	
CC(=O)SCCNC(=O)CCNC(=O)[C@H](O)C(C)(C)COP(=O)(O)OP(=O)(O)OC[C@H]1O[C@@H](n2cnc3c(N)ncnc32)[C@H](O)[C@@H]1OP(=O)(O)O [acetyl-CoA]		sigmoidal response in kinetic analysis of Rv2170 when the concentration of acetyl-CoA was increased
